The record followed here is US20040115150A1, “Cosmetics and treatment method for promoting maturation of cornified envelopes” (priority 2001, published 2004).

SMILES strings stand for the structures.

For assay [1], the system named is immature CE (cornified envelope) in stratum corneum. The assay can be described thus: CE Maturation Promoting Test, incubation varied to 37° C. and 100% relative humidity for a day. On the set-up: species or system human. Here is the method:
(§1) Stratum corneum containing many immature CE's were taken from the subjects suffering from skin troubles such as chapping, by means of tape stripping. To the stratum corneum still adhering to the tapes, a test solution was applied, followed by 4 days' incubation under the conditions of 30° C. in temperature and 70% in humidity. After end of the incubation, a tris-hydrochloric acid buffer solution containing dithiothreitol and sodium dodecylsulfate was added, followed by 10 minutes' heating at 100° C. The insoluble matter was collected by centrifuge at 4000 g for 10 minutes. Addition of the eluate and heating cycle was further repeated to thoroughly remove the soluble component. Thus obtained insoluble matter was used as CE.
Properties of each CE thus isolated were evaluated by the following method: CE was spotted on a piece of slide glass, air-dried and fixed in cold acetone. Hydrating the same with Dulbecco's phosphate buffered saline, it was reacted with mouse anti-human involucrin antibody (NOVOCASTRA Co.) as the primary antibody. Excessive antibody was removed by washing and the residue was reacted with FITC-labeled rabbit anti-mouse immunoglobulin antibody as the secondary antibody. Excessive antibody was removed by washing, and the residue was reacted with Nile Red dye solution, sealed and observed with a fluorescence microscope. The observed images were taken into computer via CCD camera, and the ratio of involucrin positive immature CE and that of Nile Red-positive mature CE were evaluated using an image analysis software (Win Roof) or the like.
Procedures similar to Example 1 were repeated, except that the incubation conditions were varied to 37° C. and 100% (relative humidity) for a day.

Assay [2] shares this test system. The assay can be described thus: CE Maturation Promoting Test (tape-stripped stratum corneum, 4 days' incubation at 30° C., 70% humidity). On the set-up: species or system human. The following applies: test solution applied to tape-stripped stratum corneum, involucrin/Nile Red staining, mean of N = 3, water control 11.7. As to the method: as §1
Properties of each CE thus isolated were evaluated by the following method: CE was spotted on a piece of slide glass, air-dried and fixed in cold acetone. […] Excessive antibody was removed by washing, and the residue was reacted with Nile Red dye solution, sealed and observed with a fluorescence microscope. The observed images were taken into computer via CCD camera, and the ratio of involucrin positive immature CE and that of Nile Red-positive mature CE were evaluated using an image analysis software (Win Roof) or the like.

[3] abbreviates: Table 3, one day, mean of N = 3, before treatment 28.3, 0.1 M MES buffer pH5.5 control 3.0.
Where [4] appears, read: Table 2, one day, mean of N = 3, water control 36.9.

As to `O[C@H](CS)[C@H](O)CS` (racemic) [10 mM dithiothreitol, dithiothreitol], in assay [1] (setting [3]), the “Ratio of Immature CE (%)” value worked out at 0.33%.

For the compound `OCC(O)CO` [10% glycerin, glycerin], the “Ratio of Immature CE (%)” value is 14.6% in assay [1] (setting [4]) and 6.3% in assay [2]. Turning to `C[N+](C)(C)CC(=O)O` [10% trimethyl glycine, trimethyl glycine], the “Ratio of Immature CE (%)” value in assay [1] (setting [4]) was found to be 9.3%.

As to `[Ca+2].[Cl-].[Cl-]` [1 mM calcium chloride, calcium chloride], the “Ratio of Immature CE (%)” value in assay [1] (setting [3]) came to 1.83%.
